# Measured values from US20220062173A1, “LIQUID COMPOSITIONS” (JOHNSON & JOHNSON CONSUMER INC., priority 2019, published 2022).
# “Also recorded” adds a separate entry of the source.
# Legend:
# [1] = test system: throat; experiment: Additional cooling evaluation, targeted throat cooling; type: in vivo; settings: Yes/No
# From the text: (§1) Cooling sensate samples were requested from various flavor suppliers and were included into the formulation at a level recommended by the manufacturer and evaluated by various individuals in terms of cooling efficiency/intensity, area within the oral cavity where cooling could be felt, cooling onset time, and duration of cooling. It was interesting to see that all the sensate provided different degree of cooling and the area within the oral cavity where cooling could be felt was different.
# [2] = Solution conductivity measurement; type: physicochemical
# Protocol: Conductivity of solutions containing Poloxamer-188 and Cooler #2 in purified water at different concentrations was measured using a MultiLab 4010-2 conductivity meter with an IDS 4320 Conductivity and Temperature Sensor.
# It is important to note that the solutions turned cloudy once Cooler #2 was added to the solution, indicating formation of an emulsion. The turbidity of the solutions was not very different as the level of Cooler #2 was increased.
# Conductivity of the Water-PG solutions containing 0.35% CMC and 0.35% HPMC was also measured in water and in combination with Cooler #2 and Poloxamer. The conductivity results are summarized below in Table 5.
# [3] = solvents named; cited from earlier work
# [4] = test system: oral cavity; experiment: Taste-test evaluation of cooling sensates in base cough-cold liquid; type: in vivo; settings: for Cooling site: area within the oral cavity where cooling could be felt; for Cooling Intensity: sensate in base cough-cold liquid at the listed addition level
# Protocol: Various polymeric additives were combined into a base cough-cold liquid formula to determine interaction, and included various grades of Avicel®, CMC, HPMC among others. A synergistic effect was observed when Poloxamer was also included in the formulation containing above mentioned rheology modifier and a cooling flavor. A cooling sensation in the back of the throat could be felt, and the sensation lasted longer (approximately 5-10 min or even longer in some instances). […] The presence of just the viscosity modifiers and no Poloxamer, the same flavor did provide targeted cooling, but the extent and duration was less.
# as §1
# Mixing Procedure: The following procedure was used to mix the materials in Table 3. The formulation was prepared by adding purified water to a suitable vessel. The Avicel RC591 was then added while mixing using a high shear mixer until dissolved, followed by addition of propylene glycol while mixing using a propeller mixer at about 500-1000 RPM. The rest of the ingredients were added and mixed at approximately 50-100 RPM for at least 30 minutes. After complete dissolution, the solution was heated using a water bath to a temperature between […] for 15 minutes while continuously stirring. The solution was cooled to room temperature before adding propylene glycol while mixing. The rest of the ingredients were added and mixed for at least 30 minutes.
"Conductivity ([2]; 0.05% of Cooler #2, 0.4% Poloxamer, Water-5% propylene glycol, about 7.4 without cooler)",SMILES,Targeted Throat Cooling [1],"Effect on conductivity of the solution ([2]; purified water, Poloxamer-188 0.2% to 2.0%, 0.15% of Cooler #2)",Solubility [3],Synergistic sensate effect [4],Cooling site [4],Cooling site ([4]; listed as IFF cooler #2),Duration ([4]; duration of cooling) [min],Overall ([4]; overall taste evaluation),Cooling Intensity [4],Onset time ([4]; values in secs) [s],Duration ([4]; Table 3) [min],Overall ([4]; Table 3),"Onset time ([4]; Table 3, values in secs) [s]",Onset time ([4]; in words),"Onset time ([4]; Table 3, values in min) [s]",Cooling site ([4]; listed as Symcool®WS-3),Cooling site ([4]; listed as Symcool WS-5)
about 35 μS/cm,"CC(C)[C@@H]1CC[C@@H](C)C[C@H]1OC(=O)CCCC(=O)O (stereo in doubt) [Cooler #2, Monomenthyl Glutarate]",Yes,significant effect on the conductivity of the solution at lower concentrations of Poloxamer-188,"Ethanol and Propylene Glycol, insoluble in Water","Did work, providing synergistic sensate effect",all the cooling was in the back of the throat,Throat,7 to 9,"Cooling concentrated towards the back of the throat, intensity grows with time and duration longer than others",Mild to medium cooling,~30,–,–,–,–,–,–,–
–,"CC(C)[C@@H]1CC[C@@H](C)C[C@H]1O [Menthol, (1R,2S,5R)-2-isopropyl-5-methylcyclohexanol, reference compound]",No,–,–,–,Throat and some in oral cavity tongue and front of the mouth,–,–,Cooling noticeable on tongue and front of the mouth and throat,Intense cooling,–,5 to 6,Cooling,~10,Immediate,–,–,–
–,"CC(O)C(=O)O[C@@H]1C[C@H](C)CC[C@H]1C(C)C (stereo partly shown) [Symcool NAT, Menthyl Lactate]",Yes,–,"Propylene glycol, ethanol","Did work, providing synergistic sensate effect","cooling in mouth, tongue along with some cooling in the back of the throat; also recorded: Tongue and some throat cooling",–,–,"Liquorish taste and cooling in the mouth and towards the back of the throat, cooling in throat as you breath in, intensity grows with time",medium cooling,–,5 to 6,Medium,~10,immediate,–,–,–
–,"COc1ccc(NC(=O)[C@@H]2C[C@H](C)CC[C@H]2C(C)C)cc1 [WS 12, (1R,2S,5R)-N-(4-methoxyphenyl)-5-methyl-2-(1-methylethyl) cyclohexanecarboxamide]",No,–,–,–,mostly tongue and some in upper throat,–,–,Mild cooling noticeable on tongue and some back of the throat,Mild Cooling,–,5 to 7,Mild cooling,–,–,60 to 120,–,–
–,"CNC(=O)C(C)(C(C)C)C(C)C [WS 23, 2-isopropyl-N,2,3-trimethylbutyramide]",No,–,–,–,tongue and front of the mouth,–,–,"Mild cooling noticeable on tongue, and front of the mouth, tingling and nose cooling as you breath out","Mild Cooling, less than WS-3 and WS-5",~10,3 to 4,Mild cooling,~10,–,–,–,–
–,"CCNC(=O)[C@@H]1C[C@H](C)CC[C@H]1C(C)C [WS-3, N-ethyl 2-isopropyl-5-methylcyclohexanecarboxamide]",Yes,–,"Propylene Glycol, ethanol, insoluble in water","Did work, providing synergistic sensate effect","cooling in mouth, tongue along with some cooling in the back of the throat",–,–,"Intense cooling noticeable all around, tongue, and upper throat, sweeter sensation like menthol","Intense Cooling, more intense than WS-5",~10,4 to 5,Intense,~10,–,–,"towards the back on mouth, upper throat, and tongue",–
–,"CCOC(=O)CNC(=O)[C@@H]1C[C@H](C)CC[C@H]1C(C)C [WS-5, N-[(ethoxycarbonyl)methyl)-p-menthane-3-carboxamide]",Yes,–,"Propylene Glycol, ethanol, insoluble in water","Did work, providing synergistic sensate effect","cooling in mouth, tongue along with some cooling in the back of the throat",–,6 to 7,"Intense cooling noticeable all around the oral cavity, tongue, and upper throat",Intense Cooling,~10,6 to 7,Intense cooling,~10,–,–,–,"towards the back on mouth, upper throat, and tongue"
